From patent US20060167270A1, “5-substituted 2h-pyrazone-3-carbixylic acid derivatives as antilipolytic agents for the treatment of metabolic-related disorders such as dyslipidemia” (Arena Pharmaceuticals Inc., priority 2002, published 2006)
pIC50: −log10 of the molar value.

Molecular target: T1, hRUP25 (Homo sapiens, UniProt Q8TDS4)
T1 construct: expressed in transfected cells; host or cells: CHO cells, stably transfected
Assay: cAMP Whole Cell assay (Flash Plate Adenylyl Cyclase kit) in CHO cells stably transfected with hRUP25
Assay type: cell-based
Settings: CHO cells stably expressing hRUP25; average of two (2) trials
From the text: A modified Flash Plate™ Adenylyl Cyclase kit (New England Nuclear, Cat. No. SMP004A) was utilized for direct identification of candidate compounds as agonists to hRUP25 (Seq. Id. Nos. 1 & 2) in accordance with the following protocol:
CHO cells stably transfected with an expression vector encoding hRUP25 and cultured under condition permissive for cell surface expression of the encoded hRUP25 receptor were harvested from flasks via non-enzymatic means. The cells were washed in PBS and resuspended in the manufacturer's Assay Buffer. Live cells were counted using a hemacytometer and Trypan blue exclusion, and the cell concentration was adjusted to 2×10^6 cells/ml. cAMP standards and Detection Buffer (comprising 2 μCi of tracer [^125I]-cAMP (100 μl) to 11 ml Detection Buffer) were prepared and maintained in accordance with the manufacturer's instructions. Candidate compounds identified as per above (if frozen, thawed at room temperature) were added to their respective wells (preferably wells of a 96-well plate) at increasing concentrations (3 μl/well; 12 μM final assay concentration). […] Plates were counted in a Wallac MicroBeta™ plate reader using “Prot. #31” (as per manufacturer instructions).
The biological in vitro activity was determined using the cAMP Whole Cell method, one representative example is shown in the table below: […]

T1 sequence (Q8TDS4 whole entry): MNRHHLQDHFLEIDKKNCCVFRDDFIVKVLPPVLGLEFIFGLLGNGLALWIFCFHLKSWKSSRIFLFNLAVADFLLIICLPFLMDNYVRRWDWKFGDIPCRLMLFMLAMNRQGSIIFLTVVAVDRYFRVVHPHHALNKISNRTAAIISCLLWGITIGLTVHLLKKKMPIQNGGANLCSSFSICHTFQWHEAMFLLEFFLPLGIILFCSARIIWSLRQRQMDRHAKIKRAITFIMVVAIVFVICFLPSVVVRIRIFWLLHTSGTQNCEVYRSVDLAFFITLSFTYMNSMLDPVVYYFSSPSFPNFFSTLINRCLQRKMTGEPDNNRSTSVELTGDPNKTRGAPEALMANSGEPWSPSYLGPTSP

For `CCCCc1[nH]nc(C(=O)O)c1F` [Compound 8, 5-Butyl-4-fluoro-1H-pyrazole-3-carboxylic acid], the pIC50 was 6.05.
